Results taken from US20240173283A1, “PROPHYLACTIC AGENT OR THERAPEUTIC AGENT FOR SIDE EFFECTS OF ANTHRACYCLINE ANTICANCER AGENT” (Kyushu University, National University Corporation, priority 2021, published 2024).

How the values were obtained:
[1] = system: malondialdehyde (MDA) in myocardial tissues; experiment: MDA (TBARS assay) in myocardial tissues, doxorubicin cardiomyopathy model; settings: day 14, FIG. 4
[2] = system: mitochondrial heme in myocardial tissues; experiment: Mitochondrial heme (QuantiChrom Heme Assay Kit) in mouse heart tissues; settings: day 14, FIG. 9B
[3] = system: iron in myocardial tissues; experiment: Mitochondrial total iron (ferrozine method) in mouse heart tissues; settings: day 14, FIG. 9A
[4] = system: Primary cardiomyocytes; experiment: Cell death evaluation assay in primary cardiomyocytes with various anthracycline anticancer agents; type: cell-based, rat; settings: 5′-ALA 1 mM added 2 hours before DOX, DNR, THP, IDR or EPI (1 or 2 μM); 26 hours after addition; FIG. 5
Procedure: Primary cardiomyocytes were isolated by trypsin and collagenase treatment of the heart harvested from a neonatal rat, and inoculated onto a petri dish. After culture for several days, the culture medium was replaced with a serum-free medium (DMEM), and doxorubicin (DOX; 1 or 2 μM), daunorubicin (DNR; 1 or 2 μM), pirarubicin (THP; 1 or 2 μM), idarubicin (IDR; 1 or 2 μM), or epirubicin (EPI; 1 or 2 μM) was added (final concentrations for all) from 24 hours later in the serum-free medium. Aminolevulinic acid (5′-ALA, 1 mM) was added 2 hours before doxorubicin addition. […] The obtained results were normalized with those of the control group defined as 1, and presented as data.

[5] = system: mitochondrial heme in rat primary cardiomyocytes; experiment: Mitochondrial heme (QuantiChrom Heme Assay Kit) in cardiomyocytes; type: cell-based; settings: FIG. 8C
[6] = system: doxorubicin cardiomyopathy model; experiment: Echocardiography in doxorubicin cardiomyopathy model; type: in vivo, mouse; settings: FIG. 3
[7] = system: acrolein in myocardial tissues; experiment: Acrolein western blot of myocardial tissues, doxorubicin cardiomyopathy model; settings: day 14, FIG. 4
Source text: (§1) The obtained image was quantitatively analyzed in image J (NIH). GAPDH (Santa Cruz Biotechnology Inc., sc-32233) was used as an internal control.

[8] = system: EL-4 cells (mouse malignant lymphoma cells); experiment: Cell survival evaluation by Trypan Blue staining in EL-4 cells; type: cell-based; settings: 24 hours, FIG. 10A
Procedure: 5′-ALA (1 mM) was added to EL-4 cells (mouse malignant lymphoma cells), and doxorubicin (1 μM) was added thereto 1 hour later. The cells were collected 24 hours after doxorubicin addition, and dead cells were stained by Trypan Blue staining. The numbers of live cells and dead cells were counted in an automatic cell counter (Countess II FL, Thermo Fisher Scientific Inc.). Cell survival evaluation was conducted from the ratio (%) of the number of live cells to the total number of cells.

[9] = system: Primary cardiomyocytes; experiment: Malondialdehyde (MDA) measurement by TBARS assay in doxorubicin-treated primary cardiomyocytes; type: cell-based, rat; settings: FIG. 1
Procedure: (§2) Primary cardiomyocytes were isolated by trypsin and collagenase treatment of the heart harvested from a neonatal rat, and inoculated onto a petri dish. After culture for several days, the culture medium was replaced with a serum-free medium (DMEM), and 2 μM (final concentration) doxorubicin was added from 24 hours later in the serum-free medium, and cardiomyocytes were lysed with a RIPA buffer and collected 24 hours after doxorubicin addition. Aminolevulinic acid (5′-ALA, 1 mM) or ferrostatin-1 (Fer-1, 50 µM) was added 1 hour before doxorubicin addition.

[10] = system: Hela cells (human uterine cervical cancer cells); experiment: Cell death evaluation assay (Cell Counting Kit-F) in Hela cells; type: cell-based; settings: 24 hours, FIG. 10B
Procedure: 5′-ALA (1 mM) was added to Hela cells (human uterine cervical cancer cells), and doxorubicin (2 μM) was added thereto 1 hour later. […] The obtained results were normalized with those of the control group defined as 1, and presented as data.

[11] = system: mitochondrial iron in rat primary cardiomyocytes; experiment: Mito-FerroGreen fluorescent staining of mitochondrial iron in cardiomyocytes; type: cell-based; settings: FIGS. 8A and 8B
Procedure: 5′-ALA (1 mM) was added to isolated rat primary cardiomyocytes, and doxorubicin (2 M) was added from 1 hour later. The cells were washed once with PBS 24 hours after doxorubicin addition and cultured for 30 minutes in a medium supplemented with Mito-FerroGreen (5 µM) for fluorescent staining of mitochondrial iron. The cells were washed with PBS again and then observed under a fluorescence microscope (BZ-X800, Keyence Corp.) (FIG. 8A). The signal intensity of the obtained image was quantitatively analyzed in image J (NIH).

[12] = system: Primary cardiomyocytes; experiment: Cell death evaluation assay (Cell Counting Kit-F) in doxorubicin-treated primary cardiomyocytes; type: cell-based, rat; settings: FIG. 2
Procedure: as §2, with “medium.” for “medium, and cardiomyocytes were lysed with a RIPA buffer and collected 24 hours after doxorubicin addition.”, “μM)” for “µM)”

[13] = system: protoporphyrin IX (PpIX); experiment: Protoporphyrin IX measurement by mass spectrometer in cardiomyocytes; type: cell-based, rat; settings: doxorubicin 2 μM, 24 hours; FIG. 7
Procedure: After doxorubicin (2 μM, 24 hours) addition to isolated rat primary cardiomyocytes, the cells were collected with PBS. 50% acetic acid and a dimethylformamide (DMF)/2-propanol (IPA) mixed solution were added to the collected sample, and the mixture was vigorously mixed by vortex. After centrifugation, a supernatant was recovered (supernatant 1), and a DMF/IPA mixed solution was added again to pellets, followed by centrifugation again. The supernatant thus obtained by centrifugation (supernatant 2) and the supernatant 1 were combined and used as protoporphyrin IX extracts. Acetonitrile was added to the extracts, and the mixture was deproteinized and then centrifuged at 20000 g for 20 minutes. Then, a supernatant was applied to a mass spectrometer (column: 1.8 UM, 2.1×100 mm; Waters, MA, USA, measurement equipment: Q Exactive Ultimate 3000; Thermo Fisher Scientific Inc.) to measure protoporphyrin IX (PPIX) in the cardiomyocytes.

[14] = system: ALAS1; experiment: Alas1 western blot in rat primary cardiomyocytes; type: cell-based; settings: doxorubicin 2 μM, 24 hours; β-Actin internal control; FIG. 6A
Source text: The obtained image was quantitatively analyzed in image J (NIH). β-Actin (Santa Cruz Biotechnology Inc., sc-47778) was used as an internal control.

[15] = system: ALAS1; experiment: Alas1 western blot in mouse heart tissues; type: in vivo; settings: doxorubicin 6 mg/kg/dose, days 0, 2, 4; day 7; GAPDH internal control; FIG. 6B
Source text: as §1

[16] = 5′-ALA 300 mg/kg/day in drinking water from 3 days before doxorubicin
[17] = 5′-ALA oral 300 mg/kg/day in drinking water from 3 days before initial doxorubicin
[18] = 5′-ALA 1 mM added 1 hour before doxorubicin 2 μM, 24 hours after doxorubicin
[19] = doxorubicin 6 mg/kg/dose, days 0, 2, 4

For NCC(=O)CCC(=O)O [5′-ALA, 5-aminolevulinic acid], the “lipid peroxide (MDA) level in myocardial tissues” value [1, 16] was “significantly suppressed increase in lipid peroxide (acrolein and MDA) levels”, the “mitochondrial heme in myocardial tissues” value [2, 17] was “the disorder is normalized” and the “total amount of iron in heart mitochondria (myocardial tissues)” value [3, 17] was “the iron excess state is normalized”. The “cell death of cardiomyocytes” value [4] was “suppressed the cell death of cardiomyocytes in all the administration groups”, the “mitochondrial heme in cardiomyocytes” value [5, 18] was “the disorder is normalized” and the “left ventricular contractility (left ventricular ejection fraction, LVEF)” value ([6]; 5′-ALA 300 mg/kg/day in drinking water from 3 days before doxorubicin (6 mg/kg/dose, days 0, 2, 4, tail vein), echocardiography 7 and 14 days) was “significantly improved reduction in left ventricular contractility”. The “lipid peroxide (acrolein) level in myocardial tissues” value [7, 16] was “significantly suppressed increase in lipid peroxide (acrolein and MDA) levels”, the “attenuation of cell death-inducing effect of doxorubicin in EL-4 cells” value ([8]; 5′-ALA 1 mM added 1 hour before doxorubicin 1 μM) was “the effects were not attenuated” and the “lipid peroxide level (MDA) in cardiomyocytes” value (“lipid peroxide level (MDA)” below) ([9]; 5′-ALA 1 mM added 1 hour before 2 μM doxorubicin, collected 24 hours after doxorubicin) was “suppressed increase in lipid peroxide level”. For the same compound, the “attenuation of cell death-inducing effect of doxorubicin in Hela cells” value ([10]; 5′-ALA 1 mM added 1 hour before doxorubicin 2 μM) was “the effects were not attenuated”, the “mitochondrial iron in cardiomyocytes (Mito-FerroGreen signal intensity)” value [11, 18] was “the iron excess state is normalized” and the “cell death (ferroptosis) of cardiomyocytes” value (from here on “cell death (ferroptosis)”) ([12]; 5′-ALA 1 mM added 1 hour before 2 μM doxorubicin, 24 hours after doxorubicin) was “suppressed the cell death (ferroptosis) of cardiomyocytes”.
CCOC(=O)c1ccc(NC2CCCCC2)c(N)c1 [Fer-1, ferrostatin-1] was tested, and the “lipid peroxide level (MDA)” value ([9]; Fer-1 50 µM added 1 hour before 2 μM doxorubicin, collected 24 hours after doxorubicin) was “equivalent to the effect of Fer-1” and the “cell death (ferroptosis)” value ([12]; Fer-1 50 μM added 1 hour before 2 μM doxorubicin, 24 hours after doxorubicin) was “equivalent to the effect of Fer-1”.
COc1cccc2c1C(=O)c1c(O)c3c(c(O)c1C2=O)C[C@@](O)(C(=O)CO)C[C@@H]3O[C@H]1C[C@H](N)[C@H](O)[C@H](C)O1 [doxorubicin] was tested, and the “lipid peroxide (MDA) level in myocardial tissues” value [1, 19] was “increase in lipid peroxide (acrolein and MDA) levels”, the “mitochondrial heme in myocardial tissues” value [2, 19] was “heme synthesis disorder is induced” and the “level of protoporphyrin IX (PpIX) in cardiomyocytes” value [13] was “decreased”. The “total amount of iron in heart mitochondria (myocardial tissues)” value [3, 19] was “an iron excess state is induced”, the “level of ALAS1 in cardiomyocytes” value [14] was “decreased” and the “mitochondrial heme in cardiomyocytes” value ([5]; doxorubicin 2 μM, 24 hours) was “a heme synthesis disorder is induced”. The “left ventricular contractility (left ventricular ejection fraction, LVEF)” value ([6]; doxorubicin 6 mg/kg/dose, days 0, 2, 4, tail vein) was “reduction in left ventricular contractility”, the “lipid peroxide (acrolein) level in myocardial tissues” value [7, 19] was “increase in lipid peroxide (acrolein and MDA) levels” and the “cell death-inducing effect in EL-4 cells (ratio of live cells to total cells)” value ([8]; doxorubicin 1 μM) was “a cell death-inducing effects, which are the drug efficacy of doxorubicin, were observed”. For the same compound, the “level of ALAS1 in myocardial tissues” value [15] was “decreased”, the “lipid peroxide level (MDA)” value ([9]; doxorubicin 2 μM, 24 hours) was “increase in lipid peroxide level in cardiomyocytes” and the “cell death-inducing effect in Hela cells” value ([10]; doxorubicin 2 μM) was “a cell death-inducing effects, which are the drug efficacy of doxorubicin, were observed”. The “mitochondrial iron in cardiomyocytes (Mito-FerroGreen signal intensity)” value ([11]; doxorubicin 2 μM, 24 hours) was “an iron excess state occurs” and the “cell death (ferroptosis)” value ([12]; doxorubicin 2 μM, 24 hours) was “cell death (ferroptosis) of cardiomyocytes induced by doxorubicin”.
